Source: patent publication US11319299B2, “Substituted carboxamides as inhibitors of WDR5 protein-protein binding” (PROPELLON THERAPEUTICS INC., priority 2016, dated 2022)
pKd: −log10 of the molar value. Read-outs that look alike come from different tables or passages of the source.

Target: WDR5 (Homo sapiens (Human), UniProt P61964)
Assay: Surface Plasmon Resonance (SPR) assay, KD and residence time
Type: binding
Details: read-out: WDR5 binding affinity (KD)
Experimental: (i) Surface Plasmon Resonance (SPR) Assay
The lifetime of a drug on its target is determined by two rate constants: the association rate constant (kon) and the dissociation rate constant (koff). In principle, the lifetime of the binary drug—target complex is thus extended by a rapid rate of drug binding and/or a slow rate of drug—target complex dissociation. The in vivo lifetime of a drug-target complex is most critically dependent on the value of the koff [Nat. Rev. Drug Discov. […] Drug Discov. […] Drug-target residence time is defined as the reciprocal of koff (τ=1/koff), making the residence time a parameter that is easily measured by routine in vitro assay methods.

[1] = surface plasmon resonance (SPR) assay
[2] = surface plasmon resonance (SPR)

Row | pKd [1] | pKd [2] | SMILES
1 | 9.22 |  | CC(C)[C@@H]1CN(c2ncc(-c3cc(NC(=O)c4c[nH]c(=O)cc4C(F)(F)F)c(N4CCN(C)[C@H](C)C4)cc3F)cn2)CCO1 (stereo in doubt) [Example 347, N-[4-fluoro-2-[(3R)-3,4-dimethylpiperazin-1-yl]-5-[2-[(2R)-2-propan-2-ylmorpholin-4-yl]pyrimidin-5-yl]phenyl]-6-oxo-4-(trifluoromethyl)-1H-pyridine-3-carboxamide]
2 | 8.63 |  | CC1CN(c2cc(F)c(-c3cnc(N4CCOC(C)(C)C4)nc3)cc2NC(=O)c2c[nH]c(=O)cc2C(F)(F)F)CCN1C (stereo in doubt) [Example 349, N-[5-[2-(2,2-dimethylmorpholin-4-yl)pyrimidin-5-yl]-4-fluoro-2-[(3R)-3,4-dimethylpiperazin-1-yl]phenyl]-6-oxo-4-(trifluoromethyl)-1H-pyridine-3-carboxamide]
3 | 7.70 |  | C[C@@H]1CN(c2ncc(-c3cc(NC(=O)c4c[nH]c(=O)cc4C(F)(F)F)c(N4C[C@@H](C)N(C)[C@H](C)C4)cc3F)cn2)C[C@H](C)O1 (stereo in doubt) [Example 356, N-[4-fluoro-5-[2-[(2R,6S)-2,6-dimethylmorpholin-4-yl]pyrimidin-5-yl]-2-[(3R,5R)-3,4,5-trimethylpiperazin-1-yl]phenyl]-6-oxo-4-(trifluoromethyl)-1H-pyridine-3-carboxamide]
4 | 6.88 |  | C[C@@H]1CN(c2cc(F)c(-c3ccc(N4CCOCC4)c(F)c3)cc2NC(=O)c2c[nH]c(=O)cc2C(F)(F)F)C[C@@H](C)N1C (stereo in doubt) [Example 357, N-[4-fluoro-5-(3-fluoro-4-morpholin-4-ylphenyl)-2-[(3R,5R)-3,4,5-trimethylpiperazin-1-yl]phenyl]-6-oxo-4-(trifluoromethyl)-1H-pyridine-3-carboxamide]
5 | 9.61 |  | C[C@@H]1CN(c2cc(F)c(-c3cnc(N(C)[C@@H]4CCOC4)nc3)cc2NC(=O)c2c[nH]c(=O)cc2C(F)(F)F)CCN1C (stereo in doubt) [Example 362, N-[4-fluoro-5-[2-[methyl-[(3R)-oxolan-3-yl]amino]pyrimidin-5-yl]-2-[(3R)-3,4-dimethylpiperazin-1-yl]phenyl]-6-oxo-4-(trifluoromethyl)-1H-pyridine-3-carboxamide]
6 | 9.20 |  | C[C@@H]1CN(c2cc(F)c(-c3cnc(N(C)C4CCOC4)nc3)cc2NC(=O)c2c[nH]c(=O)cc2C(F)(F)F)C[C@H](C)N1C (stereo in doubt) [Example 363, N-[4-fluoro-5-[2-[methyl-[(3R)-oxolan-3-yl]amino]pyrimidin-5-yl]-2-[(3S,5R)-3,4,5-trimethylpiperazin-1-yl]phenyl]-6-oxo-4-(trifluoromethyl)-1H-pyridine-3-carboxamide]
7 | 9.06 |  | CC1CN(c2cc(F)c(-c3cnc(N(C)C4CCOCC4)nc3)cc2NC(=O)c2c[nH]c(=O)cc2C(F)(F)F)CCN1C (stereo in doubt) [Example 370, N-[4-fluoro-5-[2-[methyl(oxan-4-yl)amino]pyrimidin-5-yl]-2-[(3R)-3,4-dimethylpiperazin-1-yl]phenyl]-6-oxo-4-(trifluoromethyl)-1H-pyridine-3-carboxamide]
8 | 9.28 |  | C[C@@H]1CN(c2ncc(-c3cc(NC(=O)c4c[nH]c(=O)cc4C(F)(F)F)c(N4CCN(C)[C@H](C)C4)cc3F)cn2)CCO1 (stereo in doubt) [Example 389, N-[4-fluoro-2-[(3R)-3,4-dimethylpiperazin-1-yl]-5-[2-[(2R)-2-methylmorpholin-4-yl]pyrimidin-5-yl]phenyl]-6-oxo-4-(trifluoromethyl)-1H-pyridine-3-carboxamide]
9 | 9.20 |  | CC1CN(c2ncc(-c3cc(NC(=O)c4c[nH]c(=O)cc4C(F)(F)F)c(N4C[C@@H](C)N(C)[C@@H](C)C4)cc3F)cn2)CCO1 (stereo in doubt) [Example 390, N-[4-fluoro-5-[2-[(2R)-2-methylmorpholin-4-yl]pyrimidin-5-yl]-2-[(3S,5R)-3,4,5-trimethylpiperazin-1-yl]phenyl]-6-oxo-4-(trifluoromethyl)-1H-pyridine-3-carboxamide]
10 |  | 9.17 | CC1CN(c2ncc(-c3cc(NC(=O)c4c[nH]c(=O)cc4C(F)F)c(N4C[C@@H](C)N(C)[C@@H](C)C4)cc3F)cn2)CCO1 (stereo in doubt) [Example 397, 4-(difluoromethyl)-N-[4-fluoro-5-[2-[(2R)-2-methylmorpholin-4-yl]pyrimidin-5-yl]-2-[(3S,5R)-3,4,5-trimethylpiperazin-1-yl]phenyl]-6-oxo-1H-pyridine-3-carboxamide]
11 |  | 8.85 | C[C@@H]1CN(c2ncc(-c3cc(NC(=O)c4c[nH]c(=O)cc4C(F)(F)F)c(N4CCC(N(C)C)C4)cc3F)cn2)C[C@H](C)O1 (stereo in doubt) [Example 417, N-[4-fluoro-2-[(3S)-3-(dimethylamino)pyrrolidin-1-yl]-5-[2-[(2R,6S)-2,6-dimethylmorpholin-4-yl]pyrimidin-5-yl]phenyl]-6-oxo-4-(trifluoromethyl)-1H-pyridine-3-carboxamide]
12 |  | 8.71 | CC1CN(c2cc(F)c(-c3ccc(N4C[C@@H](C)O[C@@H](C)C4)nc3)cc2NC(=O)c2ccc(F)cc2C(F)(F)F)CCN1C (stereo in doubt) [Example 423, 4-fluoro-N-[4-fluoro-5-[6-[(2R,6S)-2,6-dimethylmorpholin-4-yl]pyridin-3-yl]-2-[(3R)-3,4-dimethylpiperazin-1-yl]phenyl]-2-(trifluoromethyl)benzamide]
13 |  | 9.22 | CC1CN(c2cc(F)c(-c3cnc(N4CCC(C)(O)CC4)nc3)cc2NC(=O)c2c[nH]c(=O)cc2C(F)(F)F)CCN1C (stereo in doubt) [Example 424, N-[4-fluoro-5-[2-(4-hydroxy-4-methylpiperidin-1-yl)pyrimidin-5-yl]-2-[(3R)-3,4-dimethylpiperazin-1-yl]phenyl]-6-oxo-4-(trifluoromethyl)-1H-pyridine-3-carboxamide]
14 |  | 8.55 | C[C@@H]1CN(c2ccc(-c3cc(NC(=O)c4c[nH]c(=O)cc4C(F)(F)F)c(N4CCN(C)[C@H](C)C4)cc3F)cn2)CCO1 (stereo in doubt) [Example 433, N-[4-fluoro-2-[(3R)-3,4-dimethylpiperazin-1-yl]-5-[6-[(2R)-2-methylmorpholin-4-yl]pyridin-3-yl]phenyl]-6-oxo-4-(trifluoromethyl)-1H-pyridine-3-carboxamide]
15 |  | 8.83 | CC1CN(c2cc(F)c(-c3cnc(N4CCN(C5CC5)CC4)nc3)cc2NC(=O)c2ccc(F)cc2C(F)(F)F)CCN1C (stereo in doubt) [Example 435, N-[5-[2-(4-cyclopropylpiperazin-1-yl)pyrimidin-5-yl]-4-fluoro-2-[(3R)-3,4-dimethylpiperazin-1-yl]phenyl]-4-fluoro-2-(trifluoromethyl)benzamide]
16 |  | 9.00 | CC1CN(c2cc(F)c(-c3ccc(N4CCOCC4)c(F)c3)cc2NC(=O)c2c[nH]c(=O)cc2C(F)F)CCN1C (stereo in doubt) [Example 448, 4-(difluoromethyl)-N-[4-fluoro-5-(3-fluoro-4-morpholin-4-ylphenyl)-2-[(3R)-3,4-dimethylpiperazin-1-yl]phenyl]-6-oxo-1H-pyridine-3-carboxamide]
17 |  | 8.99 | C[C@@H]1CN(c2ncc(-c3cc(NC(=O)c4cn(C)c(=O)cc4C(F)(F)F)c(N4CCN(C)[C@H](C)C4)cc3F)cn2)CCO1 (stereo in doubt) [Example 450, N-[4-fluoro-2-[(3R)-3,4-dimethylpiperazin-1-yl]-5-[2-[(2R)-2-methylmorpholin-4-yl]pyrimidin-5-yl]phenyl]-1-methyl-6-oxo-4-(trifluoromethyl)pyridine-3-carboxamide]
18 |  | 9.09 | CC1CN(c2ncc(-c3cc(NC(=O)c4ccc(F)cc4C(F)(F)F)c(N4C[C@@H](C)N(C)[C@@H](C)C4)cc3F)cn2)CCO1 (stereo in doubt) [Example 453, 4-fluoro-N-[4-fluoro-5-[2-[(2R)-2-methylmorpholin-4-yl]pyrimidin-5-yl]-2-[(3S,5R)-3,4,5-trimethylpiperazin-1-yl]phenyl]-2-(trifluoromethyl)benzamide]
19 |  | 6.77 | O=C(Nc1cc(-c2cnc(N3CCOCC3)nc2)c(F)cc1N1C[C@H]2CCN[C@H]2C1)c1c[nH]c(=O)cc1C(F)(F)F (stereo in doubt) [Example 463, N-[4-fluoro-5-(2-morpholin-4-ylpyrimidin-5-yl)-2-[(3aR,6aR)-2,3,3a,4,6,6a-hexahydro-1H-pyrrolo[2,3-c]pyrrol-5-yl]phenyl]-6-oxo-4-(trifluoromethyl)-1H-pyridine-3-carboxamide]
20 |  | 8.45 | CC1COCCN1c1ncc(-c2cc(NC(=O)c3cn(C)c(=O)cc3C(F)F)c(N3C[C@@H](C)N(C)[C@@H](C)C3)cc2F)cn1 (stereo in doubt) [Example 475, 4-(difluoromethyl)-N-[4-fluoro-5-[2-[(3R)-3-methylmorpholin-4-yl]pyrimidin-5-yl]-2-[(3S,5R)-3,4,5-trimethylpiperazin-1-yl]phenyl]-1-methyl-6-oxopyridine-3-carboxamide]
21 |  | 8.01 | CCCN1CC[C@@H]2CN(c3cc(F)c(-c4cnc(N5CCOCC5)nc4)cc3NC(=O)c3c[nH]c(=O)cc3C(F)(F)F)C[C@@H]21 (stereo in doubt) [Example 476, N-[4-fluoro-5-(2-morpholin-4-ylpyrimidin-5-yl)-2-[(3aR,6aR)-1-propyl-2,3,3a,4,6,6a-hexahydropyrrolo[2,3-c]pyrrol-5-yl]phenyl]-6-oxo-4-(trifluoromethyl)-1H-pyridine-3-carboxamide]
22 |  | 7.62 | CN1CC[C@@H]2CN(c3cc(F)c(-c4cnc(N5CCOCC5)nc4)cc3NC(=O)c3c[nH]c(=O)cc3C(F)(F)F)C[C@@H]21 (stereo in doubt) [Example 477, N-[4-fluoro-5-(2-morpholin-4-ylpyrimidin-5-yl)-2-[(3aR,6aR)-1-methyl-2,3,3a,4,6,6a-hexahydropyrrolo[2,3-c]pyrrol-5-yl]phenyl]-6-oxo-4-(trifluoromethyl)-1H-pyridine-3-carboxamide]
